Data taken from patent publication US20060216761A1, “Isolation material for hormone disrupting substance, method of concentrating and method of clean-up” (priority 2002, published 2006).

Experiments:
[1] = test system: purified anti-resin component antibody; assay: Cross reactivity of purified anti-resin component antibody; assay type: binding, rabbit; settings: assuming BPA=100%
Description: Also, even in the BPA-2-KLH-immunized rabbits, sixth immunization (immunization number 6) led to an equilibrium of antibody titer, and 178 mg of purified anti-resin component antibody was obtained from one rabbit. When assuming BPA=100% for this purified antibody, cross reactivity was as shown in Table 12; as specificity for BPA was high, it was proven that BPA only can be specifically concentrated or cleaned up.

[2] = test system: purified anti-estrogen polyclonal antibody; assay: Cross reactivity of purified anti-estrogen polyclonal antibody; assay type: binding, rabbit; settings: assuming E2=100%
Description: In the E3-16G-KLH-immunized rabbits, third immunization (immunization number 3) led to an equilibrium of antibody titer, and 168 mg of purified anti-estrogen polyclonal antibody was obtained from one rabbit.

[3] = test system: purified anti-resin plasticizer antibody; assay: Cross reactivity of purified anti-resin plasticizer antibody; assay type: binding, rabbit; settings: assuming DBP=100%
[4] = Resistance of monoclonal antibody to a detergent; design: species or system mouse; settings: compared with antibody from EE2-277 line

Molecule: CC(O)(Cc1ccc(O)cc1)c1ccc(O)cc1 (stereo not drawn) [1,2-Bis(4-hydroxyphenyl)-2-propanol]
- Cross reactivity [1]: <0.4%

Molecule: CC(CO)(c1ccc(O)cc1)c1ccc(O)cc1 [2,2′-Bis(4-hydroxyphenyl)-1-propanol]
- Cross reactivity [1]: 9.3%

Molecule: Oc1ccc(Cl)cc1Cl [2,4-Dichlorophenol (2,4DCP), 2,4-Dichlorophenol]
- Cross reactivity [2]: <0.02%

Molecule: CC(CCC(=O)O)(c1ccc(O)cc1)c1ccc(O)cc1 [4,4′-Bis(p-hydroxyphenyl)pentanoic acid]
- Cross reactivity [1]: <0.4%

Molecule: Oc1ccc(Oc2ccc(O)cc2)cc1 [4,4′-Dihydroxydiphenyl ether]
- Cross reactivity [1]: <0.4%

Molecule: C[C@]12CC[C@@H]3c4ccc(O)cc4CC[C@H]3[C@@H]1CC[C@@H]2O [17β-Estradiol (E2), 17β-Estradiol]
- Cross reactivity [2]: 100%

Molecule: CC(=O)Oc1ccc(C(C)(C)c2ccc(OC(C)=O)cc2)cc1 [BPA diacetate]
- Cross reactivity [1]: 11.1%

Molecule: CC(C)(c1ccc(OCC2CO2)cc1)c1ccc(OCC2CO2)cc1 (stereo not drawn) [BPA diglycidyl ether]
- Cross reactivity [1]: <0.4%

Molecule: C=C(C)C(=O)Oc1ccc(C(C)(C)c2ccc(OC(=O)C(=C)C)cc2)cc1 [BPA dimethacrylate]
- Cross reactivity [1]: 2.7%

Molecule: Oc1ccc(Cc2ccc(O)cc2)cc1 [Bis(p-hydroxyphenyl)methane]
- Cross reactivity [1]: 1.0%

Molecule: O=S(=O)(c1ccc(OCCO)cc1)c1ccc(OCCO)cc1 [Bis[4-(2-hydroxyethoxy)phenyl]sulfone]
- Cross reactivity [1]: <0.4%

Molecule: CC(C)(c1ccc(O)cc1)c1ccc(O)cc1 [Bisphenol A (BPA), Bisphenol A]
- Cross reactivity [2]: <0.02%
- Cross reactivity [1]: 100%

Molecule: CCC(C)(c1ccc(O)cc1)c1ccc(O)cc1 [Bisphenol B (BPB), Bisphenol B]
- Cross reactivity [1]: 22.5%

Molecule: CC(c1ccc(O)cc1)c1ccc(O)cc1 [Bisphenol E (BPE), Bisphenol E]
- Cross reactivity [1]: 6.6%

Molecule: O=S(=O)(c1ccc(O)cc1)c1ccc(O)cc1 [Bisphenol S (BPS), Bisphenol S]
- Cross reactivity [1]: <0.4%

Molecule: CCCCOC(=O)c1ccccc1C(=O)OCCCC [Dibutyl phthalate]
- Cross reactivity [3]: 100%

Molecule: O=C(OC1CCCCC1)c1ccccc1C(=O)OC1CCCCC1 [Dicyclohexyl phthalate]
- Cross reactivity [3]: <1%

Molecule: CCOC(=O)c1ccccc1C(=O)OCC [Diethyl phthalate]
- Cross reactivity [3]: 7%

Molecule: CCCCC(CC)COC(=O)CCCCC(=O)OCC(CC)CCCC (stereo not drawn) [Diethylhexyl adipate]
- Cross reactivity [3]: <1%

Molecule: CCCCC(CC)COC(=O)c1ccccc1C(=O)OCC(CC)CCCC (stereo not drawn) [Diethylhexyl phthalate (DEHP), Diethylhexyl phthalate]
- Cross reactivity [2]: <0.02%
- Cross reactivity [3]: <1%

Molecule: CCCCCCOC(=O)c1ccccc1C(=O)OCCCCCC [Dihexyl phthalate]
- Cross reactivity [3]: 4%

Molecule: CC(C)CCCCCCOC(=O)c1ccccc1C(=O)OCCCCCCC(C)C [Diisononyl phthalate]
- Cross reactivity [3]: <1%

Molecule: CCCCCOC(=O)c1ccccc1C(=O)OCCCCC [Dipentyl phthalate]
- Cross reactivity [3]: 10%

Molecule: CCCOC(=O)c1ccccc1C(=O)OCCC [Dipropyl phthalate]
- Cross reactivity [3]: 27%

Molecule: C[C@]12CC[C@@H]3c4ccc(O)cc4CC[C@H]3[C@@H]1C[C@@H](O)[C@@H]2O [Estriol (E3), Estriol]
- Cross reactivity [2]: 69%

Molecule: C#C[C@]1(O)CC[C@H]2[C@@H]3CCc4cc(O)ccc4[C@H]3CC[C@@]21C [Ethynylestradiol (EE2), Ethynylestradiol]
- Cross reactivity [2]: 7%

Molecule: O=C(c1ccc(O)cc1)c1ccc(O)cc1 [p,p′-Dihydroxybenzophenone]
- Cross reactivity [1]: <0.4%

Molecule: Nonylphenol ethoxylate [Nonylphenol ethoxylate (NP10EO)]
- Cross reactivity [2]: <0.02%

Molecule: t-Nonylphenol [t-Nonylphenol (NP)]
- Cross reactivity [2]: <0.02%

B1: EE2-3: anti-ethynyl estradiol monoclonal antibody from mouse hybridoma EE2-3 line (antibody)
VH: VTLKXSGPGILQPSQTLSLTCSFSGFSLSTSDLGVSWIRQTSGKGLEWLAHIYWNDDKYYNPSLKSRLTISKDTSGNLVFLRITSVDTDDSATYYCARSPLYGSLTYWGQGTLVTVSA
light: DIVMSQSPSSLAVSVGEKVTLNCKSSQSLLNSRTRKNYLAWYQQKPGQSPKLLISWASTRESGVPDRFTGSGSGTDFTLTISSVQAEDLAVYYCNQFYYLLTFGAGTKLELKRADAAPTVSIFPPSSEQLTSGGASVVCFLNNFYPKDINVKWKIDGSERQNGVLNSWTDQDSKDSTYSMSSTLTLTKDEYERHNSYTCEATHKTSTSPIVKSFNRNE
modifications: Mouse; (5)..(5) Xaa = unknown for each location where they appear
notes: anti-ethynyl estradiol monoclonal antibody from mouse hybridoma EE2-3 line
- resistance to a detergent of the antibody [4]: the same as that of one from EE2-277 line

B2: EE2-8-18: anti-ethynyl estradiol monoclonal antibody from mouse hybridoma EE2-8-18 line (antibody, V domains shown)
VH: VQVKESGPGLVAPSQSLSISCTVSGFPLTSYGVQWVRQPPGKGLEWLGVIWPGGSTNYNSALMSRLSISKDNSKSQVFLKMNSLQTDDTAMYYCAGWFQTGPRLFAYWGQGTLVTVSA
VL: DIQMTQSPASLSASVGETVTITCRASENIHSYLAWYQQKQGKSPQVLVYNAKTLGEGVSSRFSGSGSGTQFSLKINSLQPEDFGTYYCQNHYGSPWTFGGGTKLESK
modifications: Mouse
notes: anti-ethynyl estradiol monoclonal antibody from mouse hybridoma EE2-8-18 line
- resistance to a detergent of the antibody [4]: slightly lower than that of one from EE2-277 line
